Molecular target: hTRPM3 (transient receptor potential melastatin 3) (Homo sapiens, UniProt Q9HCF6)
Type: cell-based

Sequence of hTRPM3 (transient receptor potential melastatin 3) (Q9HCF6 whole entry): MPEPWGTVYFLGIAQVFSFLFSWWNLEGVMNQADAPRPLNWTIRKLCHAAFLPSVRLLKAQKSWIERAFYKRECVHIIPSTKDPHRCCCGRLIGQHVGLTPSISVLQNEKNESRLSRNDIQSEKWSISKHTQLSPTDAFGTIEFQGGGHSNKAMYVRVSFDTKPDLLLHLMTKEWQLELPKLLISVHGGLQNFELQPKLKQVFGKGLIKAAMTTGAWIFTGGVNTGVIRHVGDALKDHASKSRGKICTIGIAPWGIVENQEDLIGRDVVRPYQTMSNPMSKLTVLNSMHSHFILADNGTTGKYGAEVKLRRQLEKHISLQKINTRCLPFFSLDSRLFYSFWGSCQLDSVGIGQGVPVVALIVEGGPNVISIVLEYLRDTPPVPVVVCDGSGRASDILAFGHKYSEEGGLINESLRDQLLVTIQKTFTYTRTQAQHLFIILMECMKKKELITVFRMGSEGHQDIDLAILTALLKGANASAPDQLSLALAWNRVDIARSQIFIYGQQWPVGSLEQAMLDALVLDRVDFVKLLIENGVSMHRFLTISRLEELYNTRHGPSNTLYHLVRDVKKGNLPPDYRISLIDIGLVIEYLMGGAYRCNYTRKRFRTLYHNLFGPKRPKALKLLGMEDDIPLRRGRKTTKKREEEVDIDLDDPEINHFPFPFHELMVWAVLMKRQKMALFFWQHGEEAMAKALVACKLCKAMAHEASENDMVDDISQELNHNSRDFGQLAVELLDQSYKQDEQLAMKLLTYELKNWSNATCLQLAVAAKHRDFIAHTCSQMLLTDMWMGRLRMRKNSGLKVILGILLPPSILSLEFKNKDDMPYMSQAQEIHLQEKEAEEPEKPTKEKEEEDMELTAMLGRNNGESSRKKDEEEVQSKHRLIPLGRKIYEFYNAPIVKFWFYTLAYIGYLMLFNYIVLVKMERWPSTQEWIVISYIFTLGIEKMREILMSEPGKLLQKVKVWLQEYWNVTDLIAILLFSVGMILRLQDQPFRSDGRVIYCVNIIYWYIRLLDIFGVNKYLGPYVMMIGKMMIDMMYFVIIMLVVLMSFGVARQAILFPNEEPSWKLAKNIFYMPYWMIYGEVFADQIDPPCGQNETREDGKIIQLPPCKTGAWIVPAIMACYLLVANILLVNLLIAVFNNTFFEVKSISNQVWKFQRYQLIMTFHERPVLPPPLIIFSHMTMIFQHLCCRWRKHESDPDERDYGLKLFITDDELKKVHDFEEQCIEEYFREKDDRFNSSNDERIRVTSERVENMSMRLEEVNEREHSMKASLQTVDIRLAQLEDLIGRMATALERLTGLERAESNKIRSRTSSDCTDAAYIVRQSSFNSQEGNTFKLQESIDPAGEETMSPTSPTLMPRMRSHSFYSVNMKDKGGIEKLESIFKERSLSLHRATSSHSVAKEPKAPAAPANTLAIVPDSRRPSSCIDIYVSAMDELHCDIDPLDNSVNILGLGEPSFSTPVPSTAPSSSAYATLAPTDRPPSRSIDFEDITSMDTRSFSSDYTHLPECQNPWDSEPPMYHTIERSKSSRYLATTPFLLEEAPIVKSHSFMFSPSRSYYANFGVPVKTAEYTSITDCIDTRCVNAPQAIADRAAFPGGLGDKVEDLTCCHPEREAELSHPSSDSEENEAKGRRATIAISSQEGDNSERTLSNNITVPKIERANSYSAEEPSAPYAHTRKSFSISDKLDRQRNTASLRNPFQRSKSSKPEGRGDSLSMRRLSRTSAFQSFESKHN

EC50: 18 µM
Structure (SMILES): CCCCCCCC(=O)OC[C@H](COP(=O)(O)O[C@@H]1[C@H](O)[C@H](O)[C@@H](OP(=O)(O)O)[C@H](OP(=O)(O)O)[C@H]1O)OC(=O)CCCCCCC [diC8 PI(4,5)P2]

— paper PMC4485020 (The Journal of General Physiology, 2015)
